Test [1] deals with osteoblasts (monolayer culture). The test can be described thus: Mineralization (von Kossa, image analysis), monolayer osteoblast cell culture. The format is cell-based, rat. The settings on record: for mineralization (FIG. 3): no significant difference between groups. The method, then: This isolation technique is based on the ability of osteoblasts to migrate from bone onto a substratum. Parietal and frontal calvariae (4 per animal) were aseptically explanted from 6 day-old IcoIbm rats. The calvariae were placed in Tyrode's balanced salt solution, calcium and magnesium free (TESS). The periosteum was enzymatically removed with 0.05% trypsin and 0.02% collagenase A (0.76 U/mg) dissolved in TBSS (40 calvaria/20 ml). The calvariae were shaken for 70 minutes in a waterbath at 37° C. They were washed with TESS and then transferred to 60 mm culture dishes (40 calvariae/dish) containing 5 ml of 0.02% collagenase A (0.76 U/mg) in culture medium BGJb Fitton-Jackson modification and placed in the incubator for 4 hours. The calvariae were then washed with culture medium B supplemented with 10% foetal calf serum (FCS). The calvariae were transferred into 60 mm culture dishes (4 frontal and 4 parietal/dish). The growth medium supplemented with 10% FCS and 50 μg/ml ascorbate was completely changed every 48 hours. The culture was kept for 3 weeks. After 3 weeks the migrated cells were harvested. The dish was washed with TESS, and 5 ml of TESS containing 0.05% trypsin and 0.02% collagenase A (0.76 U/mg) was added. After 1 hour in the incubator, the dish was washed with culture medium BGJb supplemented with 10% FCS. The dishes containing the calvariae and cells were rinsed with serum containing media BGJb. The cells obtained were filtered through a 40 μm nylon mesh to remove bone debris and cell aggregates. The suspended cells were centrifuged at 600 g for 5 minutes. The cell pellet was resuspended in serum containing medium BGJb and centrifuged. The viability of the resuspended cells was examined by the dye exclusion of 0.4% trypan blue, and the cells were counted in a haeinocytometer. The inoculation densities were 2·10^5/10 cm^2 for monolayer and 2·10^5/30 μl for micromasses. The micromass cultures were kept for 1 hour in the incubator before 2 ml growth medium was added. All the cultures were kept at 37° C. in a humidified atmosphere of 5% CO2, 95% air. All culture media were supplemented with 50 μg/ml ascorbate. To analyze the collagen types, 60 μg/ml beta-aminopropionitrile (beta-APN) was added to the culture medium. During cell isolation and inoculation, no ascorbate was used to increase plating efficiency. No antibiotics and no beta-glycerophosphate were added. The media were completely changed every 48 hours (60 mm culture dish 5 ml; 35 mm culture dish 2 ml). The most specific method for detecting calcified matrices is the von Kossa reaction. Silver staining indicates the presence of calcium phosphate aggregated with certain organic acids. Structural details are completely obscured by the dark precipitate. Calcified tissue components are darkened in various shades from light brown to deep black, irrespective of their mineral content. [table] In the further experiments to quantify the calcification by image analysis of a center area (123 mm^2) of the culture dish, only the creatine groups were compared to the control groups, with the GPA-treated cells not further evaluated.

For test [2] the test system is unchanged. Put plainly: Alkaline phosphatase activity (histochemically), monolayer osteoblast cell culture. The format is cell-based, rat. The settings on record: 3 weeks. The procedure:
This isolation technique is based on the ability of osteoblasts to migrate from bone onto a substratum. Parietal and frontal calvariae (4 per animal) were aseptically explanted from 6 day-old IcoIbm rats. The calvariae were placed in Tyrode's balanced salt solution, calcium and magnesium free (TESS). The periosteum was enzymatically removed with 0.05% trypsin and 0.02% collagenase A (0.76 U/mg) dissolved in TBSS (40 calvaria/20 ml). The calvariae were shaken for 70 minutes in a waterbath at 37° C. They were washed with TESS and then transferred to 60 mm culture dishes (40 calvariae/dish) containing 5 ml of 0.02% collagenase A (0.76 U/mg) in culture medium BGJb Fitton-Jackson modification and placed in the incubator for 4 hours. The calvariae were then washed with culture medium B supplemented with 10% foetal calf serum (FCS). The calvariae were transferred into 60 mm culture dishes (4 frontal and 4 parietal/dish). The growth medium supplemented with 10% FCS and 50 μg/ml ascorbate was completely changed every 48 hours. The culture was kept for 3 weeks. After 3 weeks the migrated cells were harvested. The dish was washed with TESS, and 5 ml of TESS containing 0.05% trypsin and 0.02% collagenase A (0.76 U/mg) was added. […] The viability of the resuspended cells was examined by the dye exclusion of 0.4% trypan blue, and the cells were counted in a haeinocytometer. […]

In the case of `CN(CC(=O)O)C(=N)N` [creatine], the “mineralization (FIG. 3)” value was “more mineralization than the control” in test [1] (10 mM creatine vs control, 3 weeks) and “less effective” in test [1] (20 mM creatine, 3 weeks, compared with 10 mM). Also, the “calcified area (FIG. 3)” value in test [1] (20 mM creatine vs control, 2 weeks, p<0.02, center area 123 mm^2) is “significantly higher”. The “mineralization, mean values” in test [1] (creatine groups vs control, after 2 and 3 weeks) is recorded as “Mean values were higher”.
As for `N=C(N)NCCC(=O)O` [GPA, beta-guanidinopropionic acid], the calcification pattern result in test [1] (3 weeks, GPA groups, mineralization not limited to the nodules) was “different from the control and the creatine groups”. For the same compound, the “cell density around the nodules” value in test [2] (GPA groups) is “lower than in the control and the creatine groups”. In addition, the “staining pattern for the ALP activity” value in test [2] (higher magnification, compared with control and creatine groups) was “different staining pattern”.
